Experiments:
Assay type in all cases: cell-based
Settings in all cases: 0.0625 μg/ml, 48 hours, control set as 1-fold, average of three experiments
DDC gene = test: qPCR expression of DDC gene in SHSY5Y cells
Method: (§1) SHSY5Y cells were seeded in a 6-well plate (1×10^5 cells/well) and then cultured for 24 hours. Thereafter, cells were divided into the control group and experimental group and were separately cultured in the following medium for 48 hours: • 1. Control group: DMEM medium; • 2. Experimental group: a medium the same as that of the control group, but additionally added with 0.0625 μg/ml of the compound of formula (I).
(§2) Thereafter, cells of the above groups were harvested and subjected to an RNA extraction with an RNA Extract Kit. The RNA thus obtained was then transcribed into cDNA by using a Reverse Transcriptase. Thereafter, the cDNA was subjected to a quantitative polymerase chain reaction (qPCR) by using a Step One Plus system and a KAPA SYBR FAST qPCR kit to determine the expression levels of genes related to melatonin (including TPH1, DDC, AANAT and ASMTL) in the cells of each group.
(§3) The above experimental steps were repeated three times, and then the results of the three experiments were averaged. Thereafter, the result of the control group was used as a basis (i.e., the gene expression level of the control group was set as 1-fold) to calculate the relative gene expression level of the experimental group.

TPH1 gene = test: qPCR expression of TPH1 gene in SHSY5Y cells
Method: as §1, §2, §3

AANAT gene = test: qPCR expression of AANAT gene in SHSY5Y cells
Method: as §1, §2, §3

ASMTL gene = test: qPCR expression of ASMTL gene in SHSY5Y cells
Method: as §1, §2, §3

O=C1C(O)=Cc2cccc3ccc(-c4ccc(O)cc4)c1c23 [compound of formula (I), hydroxyanigorufone]
significantly increased: expression level of DDC gene relative to control group (DDC gene) | expression level of TPH1 gene relative to control group (TPH1 gene) | expression level of AANAT gene relative to control group (AANAT gene) | expression level of ASMTL gene relative to control group (ASMTL gene)

Reference: patent US10646455B2, “Uses of hydroxyanigorufone” (TCI CO., LTD, priority 2017, dated 2020)
